Reference: US8815951B2, “Inhibitors of epoxide hydrolases for the treatment of inflammation” (The Regents of the University of California, priority 1996, dated 2014)
Several values for one entry are separate records, joined by “and”; a condition that tells them apart may be missing. Equal values may be shown once. Entries after “also recorded” stand apart in the source; their conditions may differ. Read-outs that look alike come from different tables or passages of the source.

Columns and labels:
Human sEH (HsEH) = Human sEH (HsEH) (Homo sapiens (Human), UniProt P34913); assay: Spectrophotometric sEH inhibition assay (NEP2C substrate), recombinant human sEH; type: biochemical
Protocol: (§1) Recombinant mouse sEH (MsEH) and human sEH (HsEH) were produced in a baculovirus expression system as previously reported. […] The expressed proteins were purified from cell lysate by affinity chromatography. […] Protein concentration was quantified using the Pierce BCA assay using bovine serum albumin as the calibrating standard.
(§2) The mixture was incubated at 30° C. for 5 minutes. […] Assays were performed in quadruplicate.

[1] = target: recombinant mouse sEH (MsEH) (Mus musculus (Mouse), UniProt P34914); assay: Spectrophotometric sEH inhibition assay (NEP2C substrate), recombinant mouse sEH; type: biochemical
Protocol: as §1, §2

[2] = system: 14,15-EET hydrolysis in vivo (sEH), SHR; assay: Urinary DHET and EET excretion in SHR (GC-MS); parameters: species or system rat; settings: 3 mg/kg i.p. daily, 24 hr urine after third dose, vehicle 2020
CYP ω-hydroxylase = assay: Renal microsomal arachidonic acid metabolism, ω-hydroxylase activity; type: biochemical, rat; settings: concentrations up to 25 μM
Swiss Webster mice = assay: Leukotoxin/isoleukotoxin-induced death in mice; type: in vivo, mouse; settings: pretreatment 400 mg/kg i.p. in corn oil, 30 minutes before leukotoxin/isoleukotoxin methyl esters 700 mg/kg i.v.
Protocol: Male Swiss Webster mice (25-28 g) were purchased from Simonsen, Gilroy, Calif. The animals had free access to water and food. […] After 30 minutes of the pretreatment, the mice were treated intravenously through the tail vein with a 1:1 mixture of leukotoxin/isoleukotoxin methyl esters in ethanol (700 mg/kg, 1.0 ml/kg).

[3] = system: SHR (spontaneously hypertensive rat); assay: Systolic blood pressure by tail cuff in SHR; type: in vivo; settings: for decrease in systolic blood pressure 6 hr after the dose / time by which blood pressure returned to baseline after the dose: single dose 3 mg/kg DCU or equimolar; for effect on blood pressure in the SHR: dose equimolar to 3 mg/kg DCU
Text: Animals. Male SHR and WKY rats 3-13 wks of age were purchased from Charles River Laboratories (Wilmington, Mass.) and housed in a controlled environment with 12 hr light/dark cycles and fed standard laboratory chow for □ 3 days before euthanasia. All animal use was approved by the University of California San Francisco Committee on Animal Research and followed the National Institutes of Health guidelines for the care and use of laboratory animals. For isolation of kidney subcellular fractions, rats were anesthetized with methoxyflurane, the abdominal cavities were opened, and the kidneys were perfused with ice-cold saline. Perfused kidneys were rapidly removed, the cortex and medulla dissected out and immersed in liquid nitrogen. All tissue was stored at −80° C. until preparation of microsomes. In some cases WKY and SHR rats were housed in metabolic cages for up to three days and urine was collected over triphenylphosphine in 24 hr intervals. The urine volume was noted and aliquots were stored at −80° C. prior to extraction and quantitation of DHETs and EETs. […] Systolic blood pressure was measured at room temperature by a photoelectric tail cuff system (Model 179, IITC, Inc., Woodland Hills, Calif.) for up to four days following the dose of inhibitor. Blood pressures are reported as the average of three separate readings over a 30 min period. […] Similar inhibition studies were carried out with equimolar doses of N-cyclohexyl-N′-dodecylurea, N-cyclohexyl-N′-ethylurea and dodecylaamine.

WKY rats = assay: Systolic blood pressure by tail cuff in WKY rats; type: in vivo, rat; settings: single 3 mg/kg dose
Text: Animals. Male SHR and WKY rats 3-13 wks of age were purchased from Charles River Laboratories (Wilmington, Mass.) and housed in a controlled environment with 12 hr light/dark cycles and fed standard laboratory chow for □ 3 days before euthanasia. All animal use was approved by the University of California San Francisco Committee on Animal Research and followed the National Institutes of Health guidelines for the care and use of laboratory animals. For isolation of kidney subcellular fractions, rats were anesthetized with methoxyflurane, the abdominal cavities were opened, and the kidneys were perfused with ice-cold saline. Perfused kidneys were rapidly removed, the cortex and medulla dissected out and immersed in liquid nitrogen. All tissue was stored at −80° C. until preparation of microsomes. In some cases WKY and SHR rats were housed in metabolic cages for up to three days and urine was collected over triphenylphosphine in 24 hr intervals. The urine volume was noted and aliquots were stored at −80° C. prior to extraction and quantitation of DHETs and EETs. […] Systolic blood pressure was measured at room temperature by a photoelectric tail cuff system (Model 179, IITC, Inc., Woodland Hills, Calif.) for up to four days following the dose of inhibitor. Blood pressures are reported as the average of three separate readings over a 30 min period. […]

CYP epoxygenase = assay: Renal microsomal arachidonic acid metabolism, CYP epoxygenase activity; type: biochemical, rat; settings: concentrations up to 25 μM
Protocol: Renal microsomal arachidonic acid metabolism. Microsomes, cytosol, and S9 fractions were prepared from the renal cortex or outer medulla samples from a single animal as described previously (Kroetz, D. L. et al. Mol Pharmacol 52, 362-372 (1997), Su, P. et al. Am J Physiol 275, […]-438 (1998)). Reaction conditions for the in vitro determination of arachidonic acid epoxygenase activity, metabolite extraction and HPLC analysis were described in detail elsewhere (Su, P. et al. Am J Physiol 275, […]-438 (1998)).

[4] = system: insect cell culture expressing rat mEH; assay: Toxicity of epoxide-containing xenobiotics in insect cell culture expressing rat mEH; type: cell-based
Text: The micosomal enzyme play a significant role in the metabolism of xenobiotics such as polyaromatic toxicants. Additionally, polymorphism studies have underlined a potential role of this enzyme in relation to several diseases, such as emphysema, spontaneous abortion and several forms of cancer. Inhibition of recombinant rat and human mEH can be obtained using primary ureas, amides, and amines. […].

[5] = Table 2, MsEH […], read-out: Mouse sEH IC50
[6] = Table 1, HsEH 0.2 μM (text b16: […])
[7] = Table 1, MsEH […], read-out: Mouse sEH IC50
[8] = unpublished data, C. Morisseau and B. Hammock, 2000, read-out: IC50 with mouse sEH

Structure (SMILES)	IC50 (Human sEH (HsEH); Table 2, HsEH […])	IC50 [1, 5]	other results
CC(O)C1OC1c1ccc([N+](=O)[O-])cc1 (racemic) [4-NO2—C6H4 / CH3 / CH—OH / ±]	39 ± 1 µM	6.5 ± 0.2 µM	–
CC(C)(C)CC(C)(C)NC(=O)NC1CCCCC1 [Compound 347]	–	–	IC50 (Human sEH (HsEH); [6]): 3.1 ± 0.07 µM; IC50 [1, 7]: 0.07 ± 0.01 µM
O=[N+]([O-])c1ccc(C2OC2CO)cc1 (stereo not drawn) [4-NO2—C6H4 / H / CH—OH / R,R]	–	1200 ± 25 µM	–
O=C(c1ccccc1)C1OC1c1ccc(F)cc1 (racemic) [4-F-C6H4 / C6H5 / C═O / ±]	0.3 ± 0.1 µM	1.3 ± 0.3 µM	–
COC(c1ccccc1)C1OC1c1ccc(-c2ccccc2)cc1 (racemic) [4-C6H5—C6H4 / C6H5 / CH—OCH3 / ±]	1.36 ± 0.07 µM	0.48 ± 0.05 µM	–
O=C(NC1CCCCC1)NC1CCCCC1 [DCU, N,N′-dicyclohexylurea]	–	–	excretion of total epoxygenase-derived products (EETs and DHETs) [2]: 1237 pg/mg creatinine; effect on ω-hydroxylase activity (CYP ω-hydroxylase): no effect; effect on animal death induced by leukotoxin/isoleukotoxin (Swiss Webster mice): either blocked the animal death induced by leukotoxin/isoleukotoxin or lengthened the lives of the mice; decrease in systolic blood pressure 6 hr after the dose ([3]; SHR): 22±4 mm Hg and 22 mm Hg; time by which blood pressure returned to baseline after the dose ([3]; SHR): ≤ 24 h; systolic blood pressure ([3]; SHR, three to five hr after the fourth daily 3 mg/kg dose, vehicle 128±5): 102±5 mm Hg; effect on blood pressure in the WKY (WKY rats): no effect; also recorded: unaffected; effect on CYP epoxygenase activity (CYP epoxygenase): no effect
COC(c1ccccc1)C1OC1c1ccccc1 (racemic) [C6H5 / C6H5 / CH—OCH3 / ±]	34 ± 1 µM	103 ± 5 µM	–
CCNC(=O)NC1CCCCC1 [N-cyclohexyl-N′-ethylurea]	–	–	effect on blood pressure in the SHR [3]: no effect; IC50 [1, 8]: 51.7 ± 0.7 µM
CCCCCCCC/C=C/CCCCCCCC(N)=O [elaidamide]	–	–	effect on toxicity of epoxide-containing xenobiotics [4]: enhances the toxicity effects of epoxide-containing xenobiotics
CCCCCCCCCCCCNC(=O)NC1CCCCC1 [Compound 297]	–	–	IC50 [1, 7]: 0.05 ± 0.01 µM
ON=C(c1ccccc1)C1OC1c1ccc(-c2ccccc2)cc1 (racemic) [4-C6H5—C6H4 / C6H5 / C═NOH / ±]	35 ± 1 µM	42 ± 3 µM	–
O=[N+]([O-])c1ccc(C2OC2CO)cc1 (racemic) [4-NO2—C6H4 / H / CH—OH / ±]	–	5 ± 1 µM	–
CC(=O)C1OC1c1ccc([N+](=O)[O-])cc1 (racemic) [4-NO2—C6H4 / CH3 / C═O / ±]	269 ± 5 µM	163 ± 11 µM	–
OC(c1ccccc1)C1OC1c1ccc(-c2ccccc2)cc1 (racemic) [4-C6H5—C6H4 / C6H5 / CH—OH / ±]	0.72 ± 0.03 µM	0.51 ± 0.04 µM	–
O=C(Nc1ccc(Cl)cc1)NC1CCCCC1 [Compound 20]	–	–	IC50 (Human sEH (HsEH); [6]): 0.4 ± 0.05 µM; IC50 [1, 7]: 0.19 ± 0.02 µM
O=C(c1ccccc1)C1OC1c1ccc(-c2c(F)c(F)c(F)c(F)c2F)cc1 (racemic) [4-C6F5—C6H4 / C6H5 / C═O / ±]	0.2 ± 0.01 µM	0.14 ± 0.01 µM	–
CCCCCCCCCCCCNC(=O)NC1CCCCC1 [N-cyclohexyl-N′-dodecylurea]	–	–	decrease in systolic blood pressure 6 hr after the dose ([3]; SHR): 12±2 mm Hg and 12 mm Hg; time by which blood pressure returned to baseline after the dose ([3]; SHR): ≤ 24 h; IC50 [1, 8]: 0.05 ± 0.01 µM
O=[N+]([O-])c1ccc(C2OC2CO)cc1 (stereo not drawn) [4-NO2—C6H4 / H / CH—OH / S,S]	–	1.6 ± 0.6 µM	–
Cc1ccc(C(=O)C2OC2c2ccc(-c3ccccc3)cc2)cc1 (racemic) [4-C6H5—C6H4 / 4-CH3—C6H4 / C═O / ±]	0.19 ± 0.03 µM	0.1 ± 0.01 µM	–
CCCCCCCCCCCCNC(=O)CC1CCCCC1 [Compound 514]	–	–	IC50 [1, 7]: 0.27 ± 0.01 µM
Cc1ccc(C(O)C2OC2c2ccc(-c3ccccc3)cc2)cc1 (racemic) [4-C6H5—C6H4 / 4-CH3—C6H4 / CH—OH / ±]	0.15 ± 0.02 µM	0.09 ± 0.01 µM	–
OC(c1ccccc1)C1OC1c1ccccc1 (racemic) [C6H5 / C6H5 / CH—OH / ±]	22 ± 2 µM	12.6 ± 0.9 µM	–
[O-][S+](c1ccccc1)C1OC1c1ccc(-c2ccccc2)cc1 (racemic) [4-C6H5—C6H4 / C6H5 / S═O / ±]	70 ± 3 µM	73 ± 5 µM	–
O=C(Nc1ccc(Cl)c(Cl)c1)Nc1ccc(Cl)c(Cl)c1 [Compound 299]	–	–	IC50 [1, 7]: 0.7 ± 0.1 µM
OC(c1ccccc1)C1OC1c1ccc(F)cc1 (racemic) [4-F-C6H4 / C6H5 / CH—OH / ±]	18 ± 2 µM	72 ± 16 µM	–
CCCCCCCCCCCCN [dodecylamine, reference compound]	–	–	effect on blood pressure in the SHR [3]: no effect
ON=C(c1ccccc1)C1OC1c1ccccc1 (racemic) [C6H5 / C6H5 / C═NOH / ±]	0.29 ± 0.01 µM	3.5 ± 0.5 µM	–
O=C(Nc1ccc(O)cc1)NC1CCCCC1 [Compound 128]	–	–	IC50 (Human sEH (HsEH); [6]): 11.1 ± 0.8 µM; IC50 [1, 7]: 0.79 ± 0.08 µM
CCCCCCCCNC(=O)NCCC [Compound 429]	–	–	IC50 (Human sEH (HsEH); [6]): 1.7 ± 0.4 µM; IC50 [1, 7]: 0.38 ± 0.04 µM

The next lines start with results.

IC50 (Human sEH (HsEH); Table 2, HsEH […])	IC50 [1, 5]	Structure (SMILES)	other results
0.3 ± 0.1 µM	2.9 ± 0.3 µM	O=C(c1ccccc1)C1OC1c1ccccc1 (racemic) [C6H5 / C6H5 / C═O / ±]	–
–	1100 ± 23 µM	OCC1OC1c1ccccc1 (stereo not drawn) [C6H5 / H / CH—OH / R,R]	–
–	2400 ± 46 µM	OCC1OC1c1ccccc1 (stereo not drawn) [C6H5 / H / CH—OH / S,S]	–
0.31 ± 0.02 µM	2.3 ± 0.4 µM	[O-][S+](c1ccccc1)C1OC1c1ccccc1 (racemic) [C6H5 / C6H5 / S—O / ±]	–
